Data reported in US4690935A, “Inhibition of tumor growth and metastasis with calcium channel blocker compounds” (Wayne State University, priority 1983, dated 1987).

Experiments:
B16a Tumor Cells [1] = assay: "Spontaneous" lung metastasis from an in vivo subcutaneous implant of B16a tumor cells; set-up: species or system mouse; settings: mice; for % of Control (mean number of pulmonary metastases): oral once daily, 27 days, x ± SEM, N = 10, control = 100%; for reduction of spontaneous metastasis (in words): chronic oral administration
Text: (§1) B16 amelanotic melanoma (B16a) and Walker 256 L-Pam carcinosarcoma were obtained from the Division of Cancer Treatment, Animal and Human Tumor Bank, Mason Research Institute, Worcester, Mass. Tumors were passaged four times after receipt in syngeneic C57BL/6J male mice (B16a) or allogenic Sprague Dawley rats (Walker 256 L-Pam). Passaging involved subcutaneous implantations of tumor pices (diced to approximately 2×2 MM) into the right auxiliary region using a 18 gauge needle. Mice weighing approximately 20 grams (4 to 5 weeks old) were used to passage the B16a cell line and female rats were used to passage the Walker 256 L-Pam cell line. Animals were housed under identical conditions of temperature, feeding, photoperiod, etc. The transplanted tumors were allowed to grow for approximately 14 days following implantation.
(§2) The B16a tumor cells, obtained by the previously described procedure of tumor dispersion and tumor cell elutriation were used to test the antimetastatic effect of BAY e 9736.
The effect of chronic oral administration of BAY e 9736 on spontaneous lung metastasis from a primary subcutaneous B16a tumor was also determined. A 16 mg portion of BAY e 9736 was dissolved in 1 ml of PEG-400 and diluted 1:8, 1:32, 1:80, and 1:800. Syngeneic C56BL/6J mice were injected subcutaneously with 1×10^5 B16a tumor cells in 0.1 ml prepared as previously described. Starting one day post tumor injection, the mice were administered BAY e 9736 orally once a day for 27 days with 0.1 ml of the diluted BAY e 9736. The control and treated mice were housed under identical conditions of temperature, feeding and photoperiod, etc. The mice were sacrificed 28 days after the injection of tumor cells and the lungs were removed in Bouin's solution and visible bilateral metastasis counted.

B16a Tumor Cells [2] = assay: "Experimental" metastasis (lung colonies) induced by tail vein injection of B16a tumor cells; assay type: in vivo, mouse; settings: oral, mice; for % of Control (mean number of metastatic lesions on lung surface): 1 h before and 1 h after tumor cells, 21 days, x ± SEM, n = 12, control = 100%; for reduction of lung colonies / tail vein metastasis (in words): tail vein injection of B16a
Text: as §1, §2
A 40 mg portion of BAY e 9736 was dissolved in 1 ml of polyethylene glycol (PEG-400). This stock solution was diluted 1:5, 1:10, 1:50 and 1:1000 with PEG-400. C56BL/6J mice weighing an average of 20 grams were injected orally with 0.1 ml of the diluted BAY e 9736 one hour before and one hour after challenge with tumor cells. One hour after the first oral administration of BAY e 9736, the mice were injected via the tail vein with a 3×10^4 B16a tumor cell suspension in 0.05 ml prepared as described previously. The control and treated mice were kept under identical conditions of temperature, feeding) photoperiod, etc. The mice were sacrificed 21 days after tail vein injection of the tumor cells and the lungs were removed, fixed in Bouin's solution and visible bilateral metastasis counted.

COCCOC(=O)C1=C(C)NC(C)=C(C(=O)OC(C)C)C1c1cccc([N+](=O)[O-])c1 (stereo not drawn) [BAY e 9736, 1,4-dihydro-2,6-dimethyl-4-(3' nitrophenyl)-pyridine-3-(beta-methyoxyethylester)-5-(isopropyl ester)]
% of Control (mean number of pulmonary metastases) (B16a Tumor Cells [1]; 0.1 mg/kg): 68 ± 14% | % of Control (mean number of pulmonary metastases) (B16a Tumor Cells [1]; 1.0 mg/kg): 45 ± 9% | % of Control (mean number of pulmonary metastases) (B16a Tumor Cells [1]; 2.5 mg/kg): 33 ± 22% | % of Control (mean number of pulmonary metastases) (B16a Tumor Cells [1]; 10.0 mg/kg): 28 ± 7% | % of Control (mean number of pulmonary metastases) (B16a Tumor Cells [1]; 80.0 mg/kg): 19 ± 6% | reduction of spontaneous metastasis (in words) (B16a Tumor Cells [1]): effective in decreasing the number of spontaneous metastasis as compared to the control mice | reduction of spontaneous metastasis (in words) (B16a Tumor Cells [1]; listed as nimodipine): significantly reduce spontaneous metastasis | % of Control (mean number of metastatic lesions on lung surface) (B16a Tumor Cells [2]; 0.2 mg/kg): 55 ± 5% | % of Control (mean number of metastatic lesions on lung surface) (B16a Tumor Cells [2]; 4.0 mg/kg): 60 ± 7% | % of Control (mean number of metastatic lesions on lung surface) (B16a Tumor Cells [2]; 20.0 mg/kg): 73 ± 13.7% | % of Control (mean number of metastatic lesions on lung surface) (B16a Tumor Cells [2]; 40.0 mg/kg): 74 ± 7.5% | reduction of lung colonies / tail vein metastasis (in words) (B16a Tumor Cells [2]): effective in reducing the number of lung colonies at all levels examined | reduction of lung colonies / tail vein metastasis (in words) (B16a Tumor Cells [2]; listed as nimodipine): reduce metastasis induced by tail vein injection
